Converted amounts (≈) assume the structure as drawn.
What was measured:
Assay in all cases: In vitro antibacterial evaluation: minimum inhibitory concentration (MIC), broth dilution method
Format in all cases: cell-based
Staphylococcus sp. = conditions: broth dilution, 18 hours at 35° C.
Method in brief: (§1)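 Test strains, among them recent clinical isolates carrying methicillin, penicillin and/or vancomycin resistance, were inoculated at 5×10^5 CFU/mL. A broth dilution series spanning 64-0.06 μg/mL in Muller-Hinton II […] (NCCLS M7-A2) defined the MIC as the lowest growth-inhibiting concentration.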

Escherichia coli = system: Escherichia coli
Method in brief: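 An MIC is reported for each organism as the least concentration giving inhibition, using broth dilution over 64-0.06 μg/mL with a 5×10^5 CFU/mL inoculum.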

Enterococcus sp. = system: Enterococcus sp.
Method in brief: as §1

Streptococcus sp. = system: Streptococcus sp.
Method in brief: as §1

[1] = broth dilution, inoculum 5×10^5 CFU/mL, 18 hours at 35° C.

## CC(c1ccccc1)C1NC(=O)CNC(=O)C(CO)NC(=O)C(C(O)C2CNC(=N)N2C2OC(CO)C(O)C(O)C2O)NC(=O)C(C(O)C2CNC(=N)N2)NC(=O)C(Cc2ccc(OC3OC(CO)C(OC4OC5COC(c6ccc(S(C)(=O)=O)cc6)OC5C(O)C4O)C(O)C3O)cc2)NC1=O (stereo not drawn) [Example 157, Cyclo[glycyl-β-methylphenylalanyl-O-[4-O-[4,6-O-(4-(methylsulfonyl)benzylidene)hexopyranosyl]hexopyranosyl]tyrosyl-3-(2-iminoimidazolidin-4-yl)seryl-3-(3-hexopyranosyl-2-iminoimidazolidin-4-yl)serylseryl]]
Staphylococcus sp.; 5×10^5 CFU/mL
  MIC Coagulase Negative Staphylococcus (GC 4547): 16 µg/mL (≈ 10.9 µM)
  MIC Coagulase Negative Staphylococcus (GC 4548): 8 µg/mL (≈ 5.47 µM)
  MIC Coagulase Negative Staphylococcus (GC 4549): 8 µg/mL (≈ 5.47 µM)
  MIC Coagulase Negative Staphylococcus (GC 4551): 32 µg/mL (≈ 21.9 µM)
  MIC Coagulase Negative Staphylococcus (GC 6257): 4 µg/mL (≈ 2.74 µM)
  MIC Staphylococcus aureus (ATCC 29213): 32 µg/mL (≈ 21.9 µM)
  MIC Staphylococcus aureus (GC 1131): 32 µg/mL (≈ 21.9 µM)
  MIC Staphylococcus aureus (GC 3051): 16 µg/mL (≈ 10.9 µM)
  MIC Staphylococcus aureus (GC 3053): 32 µg/mL (≈ 21.9 µM)
  MIC Staphylococcus aureus (GC 4541): 16 µg/mL (≈ 10.9 µM)
  MIC Staphylococcus aureus (GC 4542): 32 µg/mL (≈ 21.9 µM)
  MIC Staphylococcus aureus (GC 4544): 32 µg/mL (≈ 21.9 µM)
  MIC Staphylococcus aureus (GC 4545): 16 µg/mL (≈ 10.9 µM)
  MIC Staphylococcus aureus-SMITH (GC 4543): 16 µg/mL (≈ 10.9 µM)
  MIC Staphylococcus haemolyticus (GC 4546): 16 µg/mL (≈ 10.9 µM)
Staphylococcus sp.; strain ATCC 29213
  MIC Staphylococcus aureus (ATCC 29213): 32 µg/mL (≈ 21.9 µM)
Staphylococcus sp.; strain GC 1131
  MIC Staphylococcus aureus (GC 1131): 32 µg/mL (≈ 21.9 µM)
Staphylococcus sp.; strain GC 3051
  MIC Staphylococcus aureus (GC 3051): 16 µg/mL (≈ 10.9 µM)
Staphylococcus sp.; strain GC 3053
  MIC Staphylococcus aureus (GC 3053): 32 µg/mL (≈ 21.9 µM)
Staphylococcus sp.; strain GC 4541
  MIC Staphylococcus aureus (GC 4541): 16 µg/mL (≈ 10.9 µM)
Staphylococcus sp.; strain GC 4542
  MIC Staphylococcus aureus (GC 4542): 32 µg/mL (≈ 21.9 µM)
Staphylococcus sp.; strain GC 4543
  MIC Staphylococcus aureus-SMITH (GC 4543): 16 µg/mL (≈ 10.9 µM)
Staphylococcus sp.; strain GC 4544
  MIC Staphylococcus aureus (GC 4544): 32 µg/mL (≈ 21.9 µM)
Staphylococcus sp.; strain GC 4545
  MIC Staphylococcus aureus (GC 4545): 16 µg/mL (≈ 10.9 µM)
Staphylococcus sp.; strain GC 4546
  MIC Staphylococcus haemolyticus (GC 4546): 16 µg/mL (≈ 10.9 µM)
Staphylococcus sp.; strain GC 4547
  MIC Coagulase Negative Staphylococcus (GC 4547): 16 µg/mL (≈ 10.9 µM)
Staphylococcus sp.; strain GC 4548
  MIC Coagulase Negative Staphylococcus (GC 4548): 8 µg/mL (≈ 5.47 µM)
Staphylococcus sp.; strain GC 4549
  MIC Coagulase Negative Staphylococcus (GC 4549): 8 µg/mL (≈ 5.47 µM)
Staphylococcus sp.; strain GC 4551
  MIC Coagulase Negative Staphylococcus (GC 4551): 32 µg/mL (≈ 21.9 µM)
Staphylococcus sp.; strain GC 6257
  MIC Coagulase Negative Staphylococcus (GC 6257): 4 µg/mL (≈ 2.74 µM)
Escherichia coli; strain ATCC 25922
  MIC Escherichia coli (ATCC 25922): >64 µg/mL
Escherichia coli; strain GC 4559
  MIC Escherichia coli (GC 4559): >64 µg/mL
Enterococcus sp.; [1]
  MIC Enterococcus avium (GC 4558): 64 µg/mL (≈ 43.8 µM)
  MIC Enterococcus faecalis (ATCC 29212): >64 µg/mL
  MIC Enterococcus faecalis (GC 4552): >64 µg/mL
  MIC Enterococcus faecalis (GC 4553): >64 µg/mL
  MIC Enterococcus faecalis (GC 4554): >64 µg/mL
  MIC Enterococcus faecalis (GC 6189): >64 µg/mL
  MIC Enterococcus faecium (GC 2243): 64 µg/mL (≈ 43.8 µM)
  MIC Enterococcus faecium (GC 4556): >64 µg/mL
  MIC Enterococcus faecium (GC 4557): 8 µg/mL (≈ 5.47 µM)
Enterococcus sp.; strain ATCC 29212
  MIC Enterococcus faecalis (ATCC 29212): >64 µg/mL
Enterococcus sp.; strain GC 2242
  MIC Enterococcus faecalis (GC 2242): 64 µg/mL (≈ 43.8 µM)
Enterococcus sp.; strain GC 2243
  MIC Enterococcus faecium (GC 2243): 64 µg/mL (≈ 43.8 µM)
Enterococcus sp.; strain GC 2691
  MIC Enterococcus faecalis (GC 2691): >64 µg/mL
Enterococcus sp.; strain GC 3059
  MIC Enterococcus faecalis (GC 3059): >64 µg/mL
Enterococcus sp.; strain GC 4552
  MIC Enterococcus faecalis (GC 4552): >64 µg/mL
Enterococcus sp.; strain GC 4553
  MIC Enterococcus faecalis (GC 4553): >64 µg/mL
Enterococcus sp.; strain GC 4554
  MIC Enterococcus faecalis (GC 4554): >64 µg/mL
Enterococcus sp.; strain GC 4556
  MIC Enterococcus faecium (GC 4556): >64 µg/mL
Enterococcus sp.; strain GC 4557
  MIC Enterococcus faecium (GC 4557): 8 µg/mL (≈ 5.47 µM)
Enterococcus sp.; strain GC 4558
  MIC Enterococcus avium (GC 4558): 64 µg/mL (≈ 43.8 µM)
Enterococcus sp.; strain GC 6189
  MIC Enterococcus faecalis (GC 6189): >64 µg/mL
Streptococcus sp.; strain ATCC 6301
  MIC Streptococcus pneumoniae (ATCC 6301): 4 µg/mL (≈ 2.74 µM)
Streptococcus sp.; strain GC 1894
  MIC Streptococcus pneumoniae (GC 1894): 4 µg/mL (≈ 2.74 µM)
Streptococcus sp.; strain GC 4563
  MIC Streptococcus pyogenes (GC 4563): 8 µg/mL (≈ 5.47 µM)
Streptococcus sp.; strain GC 4564
  MIC Streptococcus agalactiae (GC 4564): 16 µg/mL (≈ 10.9 µM)
Streptococcus sp.; strain GC 4565
  MIC Streptococcus pneumoniae (GC 4565): 4 µg/mL (≈ 2.74 µM)
